Article PMC8808171, “Nonselective TRPC channel inhibition and suppression of aminoglycoside-induced premature termination codon readthrough by the small molecule AC1903” (The Journal of Biological Chemistry, 2022)

Molecular target: T1, TRPC1:C4 (A498) (Homo sapiens, UniProt P48995+Q9UBN4)
T1 construct: endogenous in cells; host or cells: A498
Experiment: [Ca2+]i recordings (Fura-2), endogenous TRPC1:C4 channels in A498 cells
Type: cell-based
Settings: activator EA (100 nM)
Protocol: HEK T-REx cells expressing tetracycline-inducible TRPC4, TRPC5, TRPC5–C1,TRPC4–C1, and hPiezo1 have been described previously ([46], [57], [59], [78]). Cloning of TRPC3 has been described previously ([79]). To create cells stably expressing tetracycline-inducible TRPC3, HEK T-REx cells were transfected with pcDNA4/TO/hTRPC3 using jetPRIME transfection reagent (VWR) according to manufacturer’s instructions. After 48 h cells were put under antibiotic selection using 400 μg/ml zeocin and 10 μg/ml Blasticidin S (Invivogen)). Medium changes were carried out every 2 to 3 days to remove dead cells. Inducible HEK T-REx cells were cultured in Dulbecco’s modified Eagle medium GlutaMAX (Thermo Fisher Scientific) containing 10% fetal bovine serum (FBS; Merck), penicillin-streptomycin (100 units ml^−1/100 μg ml^−1), with the addition of blasticidin (10 μg ml^1; Invivogen) and zeocin (Invivogen) at either 400 μg ml^−1 (TRPC cell lines) or 200 μg ml^−1 (hPiezo1) to maintain the stable incorporation of the tetracycline repressor and the channel of interest, respectively. Expression of tetracycline-inducible proteins was induced by the addition of tetracycline (TRPC cell lines: 1 μg ml^−1, hPiezo1: 100 ng ml^−1; 24 h) to cell culture medium. […]
For Ca^2+ recording, electrophysiology, and cell viability experiments, data were analyzed using GraphPad Prism 9.0. […]

T1 sequence (Q9UBN4 whole entry): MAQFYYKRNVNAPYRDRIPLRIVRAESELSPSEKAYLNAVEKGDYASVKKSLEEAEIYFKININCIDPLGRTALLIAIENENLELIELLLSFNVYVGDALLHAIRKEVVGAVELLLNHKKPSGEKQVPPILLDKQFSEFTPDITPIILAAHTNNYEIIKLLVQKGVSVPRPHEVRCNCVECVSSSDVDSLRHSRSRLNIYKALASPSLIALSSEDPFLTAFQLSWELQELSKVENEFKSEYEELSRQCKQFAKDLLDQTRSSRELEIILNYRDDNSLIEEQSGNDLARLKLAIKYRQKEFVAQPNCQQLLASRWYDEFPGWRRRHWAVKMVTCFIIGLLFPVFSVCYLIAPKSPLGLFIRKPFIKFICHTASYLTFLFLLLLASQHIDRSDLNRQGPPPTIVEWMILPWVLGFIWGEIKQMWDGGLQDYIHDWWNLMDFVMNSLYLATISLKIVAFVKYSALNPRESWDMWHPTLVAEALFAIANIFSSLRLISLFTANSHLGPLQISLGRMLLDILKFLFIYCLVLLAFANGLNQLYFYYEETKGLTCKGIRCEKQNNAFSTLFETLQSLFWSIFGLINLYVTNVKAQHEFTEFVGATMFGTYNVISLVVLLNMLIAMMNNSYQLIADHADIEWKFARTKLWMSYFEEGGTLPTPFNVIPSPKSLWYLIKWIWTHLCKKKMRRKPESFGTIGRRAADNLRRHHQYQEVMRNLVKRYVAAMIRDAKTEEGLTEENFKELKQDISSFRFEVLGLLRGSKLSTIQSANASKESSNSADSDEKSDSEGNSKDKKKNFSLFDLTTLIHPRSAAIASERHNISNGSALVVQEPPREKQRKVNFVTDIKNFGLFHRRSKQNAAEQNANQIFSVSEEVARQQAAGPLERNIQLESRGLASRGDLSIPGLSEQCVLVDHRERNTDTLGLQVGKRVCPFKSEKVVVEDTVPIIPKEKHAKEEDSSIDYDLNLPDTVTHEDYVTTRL
T1 sequence (P48995 whole entry): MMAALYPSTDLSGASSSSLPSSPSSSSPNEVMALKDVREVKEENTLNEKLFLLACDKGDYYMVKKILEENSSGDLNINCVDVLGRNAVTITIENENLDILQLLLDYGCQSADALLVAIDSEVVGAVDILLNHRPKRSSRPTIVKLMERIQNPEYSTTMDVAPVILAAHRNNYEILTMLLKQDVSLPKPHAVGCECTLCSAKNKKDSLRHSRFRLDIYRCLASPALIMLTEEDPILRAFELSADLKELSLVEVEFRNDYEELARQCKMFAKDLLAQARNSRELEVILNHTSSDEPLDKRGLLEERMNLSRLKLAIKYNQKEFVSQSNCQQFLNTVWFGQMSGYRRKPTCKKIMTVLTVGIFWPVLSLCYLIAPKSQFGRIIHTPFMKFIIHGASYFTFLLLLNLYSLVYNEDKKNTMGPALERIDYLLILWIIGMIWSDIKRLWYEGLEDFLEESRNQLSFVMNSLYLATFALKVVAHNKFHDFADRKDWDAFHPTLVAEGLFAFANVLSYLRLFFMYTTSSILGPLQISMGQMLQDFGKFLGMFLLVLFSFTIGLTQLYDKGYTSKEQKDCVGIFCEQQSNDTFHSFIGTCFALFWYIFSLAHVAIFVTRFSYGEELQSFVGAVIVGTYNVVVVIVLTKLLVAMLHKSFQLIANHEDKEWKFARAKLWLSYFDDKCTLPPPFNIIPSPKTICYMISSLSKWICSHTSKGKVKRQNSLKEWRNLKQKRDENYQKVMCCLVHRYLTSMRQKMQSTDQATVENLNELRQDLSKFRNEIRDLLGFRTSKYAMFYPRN

A Hill slope (A498) of -1.2 and an IC50 (A498 cells) of 3.4 µM were found for c1ccc(Cn2c(NCc3ccco3)nc3ccccc32)cc1 [AC1903] in this work.
